# Reference: publication PMC11480411, “Mucosal sugars delineate pyrazine vs pyrazinone autoinducer signaling in Klebsiella oxytoca” (Nature Communications, 2024)
# Test system: leup operon (leupeptin BGC) promoter in K. oxytoca ATCC 8724
# Test: GFP-based transcriptional reporter for the leup operon
# Type: cell-based, Klebsiella oxytoca
# Conditions: carbohydrate screen, M9 + casamino acid + 0.4% indicated sugar, 30 °C, 24 h; for GFP fluorescence, GFP Strain + Media: leup GFP reporter strain; for GFP fluorescence, WT + Media: wildtype K. oxytoca without reporter (background)
# Text: We previously examined a panel of 84 clinical K. oxytoca isolates (including recently renamed Klebsiella michiganensis isolates) for the presence of either the leup operon or npsB, an NRPS of the tilimycin/tilivalline gene cluster. […] While the roles of tilivalline and tilimycin in hemorrhagic colitis are well studied[8],[9], the operon for leupeptin biosynthesis is “silent” in K. oxytoca under typical laboratory culture conditions (i.e., leupeptin production is undetectable). Therefore, our study commenced by exploring growth conditions required to trigger leupeptin biosynthesis in K. oxytoca. To achieve this, we generated a green fluorescent protein (GFP)-based reporter system to monitor leup transcription in K. oxytoca ATCC 8724 (recently renamed as Klebsiella michiganensis (ATCC 8724), Fig. 1a). We utilized λ-red recombineering techniques[38] to replace the first biosynthetic gene (leupA) of the leupeptin BGC with a GFP-spectinomycin resistance cassette. […] Consequently, conditions that elicit transcription of the leupeptin BGC can be monitored by GFP fluorescence intensity.
# 5 mL of the leupeptin reporter strain was cultured aerobically in 10 g/L of LB (Becton Dickinson), yeast extract, GAM (HiMedia Laboratories), horse liver extract (HiMedia Laboratories), malt extract (VWR), meat extract (HiMedia Laboratories), YPD (Dot Scienticifc), brain heart infusion (Becton Dickinson), porcine mucin (Sigma-Aldrich, M1778), clostridial (Becton Dickinson), TSB (VWR), or casamino acid supplemented (5 g/L, VWR) M9 minimal salts (MP Biomedicals) at 30 °C for 24 h at 250 rpm. Cultures were lysed via sonication, centrifuged, and 150 µL of the supernatants were aliquoted into black well clear bottom 96 well plates. GFP fluorescence measurements were performed on a BioTek Synergy H1 plate reader with an excitation wavelength of 488 nm and an emission wavelength of 525 nm. For the carbohydrate screen, the leupeptin reporter strain was cultured in M9 minimal medium (MPbio) supplemented with casamino acid (5 g/L, VWR) and 0.4% indicated sugar aerobically at 30 °C for 24 h at 250 rpm.
Structure (SMILES),"GFP fluorescence, GFP Strain + Media [RFU]","GFP fluorescence, WT + Media [RFU]"
CC(C)S[C@@H]1O[C@H](CO)[C@H](O)[C@H](O)[C@H]1O [IPTG],9918,8873
N[C@H]1C(O)O[C@H](CO)[C@@H](O)[C@@H]1O (stereo partly drawn) [Glucosamine],9974,5479
OC[C@H]1OC(O)[C@H](O)[C@@H](O)[C@@H]1O (stereo partly drawn) [Glucose],9593,8596
O=C[C@H](O)[C@@H](O)[C@@H](O)[C@H](O)CO [Galactose],9159,6849
CC(=O)N[C@H]1C(O)O[C@H](CO)[C@H](O)[C@@H]1O (stereo partly drawn) [GalNAc],9643,8779
CC(=O)N[C@@H]1[C@@H](O)[C@H](O)[C@@H](CO)O[C@H]1O [GlcNAc],9678,5235
